This is an account of results in PubChem BioAssay (NCI).

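Following 48 hours of exposure in 96-well plates, responses at five concentrations were used to interpolate endpoints linearly. GI50 = concentration required for 50% inhibition of growth. TGI is the concentration that stops growth completely.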

Test systems include U251 CNS; SR leukemia; SN12C renal; OVCAR-5 ovarian; NCI-H460 lung; COLO 205 colon; RXF 393 renal; NCI-H23 lung; CCRF-CEM leukemia.
Test in all cases: DTP human tumour cell line panel, 48 h

Usually TGI stands for the concentration giving total growth inhibition. Low readings indicate more potent growth arrest, high ones less potent growth arrest. On to `Cc1ccc(C(=O)O/N=C2/CCCC/C2=C\c2ccccc2)cc1`, for which the concentration for total growth inhibition (TGI) in the test on U251 CNS, in the test with SR leukemia, in the test with SN12C renal, in the test on OVCAR-5 ovarian, with NCI-H460 lung and with COLO 205 colon was above 100 µM throughout. The TGI in the test on RXF 393 renal, in the test with NCI-H23 lung and in the test on CCRF-CEM leukemia was above 100 µM in each case.
On to `N#Cc1cc(C#N)c(Cl)nc1N`, for which the total growth inhibition concentration (TGI) in the test with U251 CNS, in the test with SR leukemia, with SN12C renal, in the test on NCI-H460 lung, in the test with COLO 205 colon and with RXF 393 renal was above 10 µM throughout. The concentration for total growth inhibition (TGI) with NCI-H23 lung and in the test with CCRF-CEM leukemia was above 10 µM in each case.
On to `CC1=CC2CC(C)=C(CC[C@]3(C)CC[C@H]([C@@H](C)C(=O)O)OO3)C(C)(C)C2CC1` (some centres undefined), for which the total growth inhibition concentration (TGI) in the test on U251 CNS turned out to be 1.01 µM; in the test with SR leukemia it was 0.382 µM; in the test on SN12C renal it was 1.9 µM; in the test with OVCAR-5 ovarian, 3.8 µM; in the test on NCI-H460 lung, 0.393 µM; with COLO 205 colon it was 1.36 µM. For the same molecule, the TGI with RXF 393 renal is 1.09 µM; in the test with NCI-H23 lung it was 2.35 µM; in the test with CCRF-CEM leukemia it was 0.493 µM.
For `NNC(=S)N/N=C(\CCCC(=O)NCCc1ccccc1)CC(=O)c1ccccc1`, the TGI with U251 CNS, in the test on SR leukemia, in the test with SN12C renal, in the test with OVCAR-5 ovarian, in the test on NCI-H460 lung and in the test on COLO 205 colon was above 100 µM throughout. Moreover, the TGI in the test with RXF 393 renal and in the test on NCI-H23 lung was above 100 µM each time.
The term GI50 denotes the concentration that inhibits growth by half. Turning to `COc1cc2c(/C=N\N=C(N)N)c(Cl)[nH]c2cc1C`, the GI50 in the test on U251 CNS is 4.62 µM; in the test on SR leukemia it was 3.34 µM; in the test on SN12C renal it was 1.65 µM; with OVCAR-5 ovarian, 15.2 µM; with NCI-H460 lung it was 15 µM; in the test on COLO 205 colon, 2.67 µM. Moreover, the GI50 in the test on RXF 393 renal is 14.8 µM; in the test on NCI-H23 lung, 14.1 µM; in the test on CCRF-CEM leukemia it was 3.89 µM. The TGI with U251 CNS was 17.7 µM; in the test on SR leukemia it was 8.22 µM; with SN12C renal, 11.5 µM; in the test with OVCAR-5 ovarian, 29 µM; with NCI-H460 lung, above 100 µM; with COLO 205 colon, 8.82 µM. The total growth inhibition concentration (TGI) is 30.1 µM in the test on RXF 393 renal, 28 µM in the test with NCI-H23 lung and 17.5 µM in the test with CCRF-CEM leukemia.
In the case of `O=C1OC(=O)c2c1c(-c1ccccc1)cn2-c1ccc(Cl)cc1`, the total growth inhibition concentration (TGI) in the test on U251 CNS is above 100 µM; in the test on SR leukemia it was above 100 µM; with SN12C renal it was above 100 µM; in the test on OVCAR-5 ovarian, above 100 µM; with NCI-H460 lung it was above 100 µM; with COLO 205 colon, 37.5 µM. The TGI in the test with NCI-H23 lung and in the test with CCRF-CEM leukemia was above 100 µM throughout.
For the molecule `COC(=O)Cc1cc(OC)c(OC)cc1Br`, the total growth inhibition concentration (TGI) in the test with U251 CNS, with SR leukemia, in the test on SN12C renal, with OVCAR-5 ovarian, with NCI-H460 lung and in the test with COLO 205 colon was above 100 µM each time. Moreover, the total growth inhibition concentration (TGI) with NCI-H23 lung and with CCRF-CEM leukemia was above 100 µM throughout.
For the molecule `c1ccc(SC2(Sc3ccccc3)CCCC2)cc1`, the TGI in the test with U251 CNS, in the test with SR leukemia, in the test on SN12C renal, with NCI-H460 lung, in the test on COLO 205 colon and in the test on RXF 393 renal was above 100 µM in each case. The total growth inhibition concentration (TGI) with NCI-H23 lung and in the test with CCRF-CEM leukemia was above 100 µM in each case.
Consider `COc1cccc(C2CC(c3cc(OC)c(OC)c(OC)c3)=NN2)c1` (centres undefined), for which the GI50 in the test with U251 CNS is 10 µM; with SR leukemia, 3.09 µM; with SN12C renal, 22.7 µM; in the test with OVCAR-5 ovarian, 18.4 µM; in the test on NCI-H460 lung, 13.3 µM; in the test on COLO 205 colon, 18.7 µM. The GI50 in the test with RXF 393 renal was 8.75 µM; with CCRF-CEM leukemia, 2.91 µM. Also, the TGI in the test on U251 CNS was 22.8 µM; in the test with SR leukemia, 14.1 µM; with SN12C renal it was above 100 µM; in the test on OVCAR-5 ovarian, 66.1 µM; in the test with NCI-H460 lung, 35.4 µM; in the test on COLO 205 colon, 48.8 µM. For the same molecule, the TGI in the test on RXF 393 renal came to 34 µM; with CCRF-CEM leukemia it was 21.7 µM.
Regarding `CCC1(C)NN=c2s/c(=C/c3ccc(OC)cc3)c(=O)n2N1` (centres undefined), the TGI in the test on U251 CNS, in the test on SR leukemia, in the test with SN12C renal, with OVCAR-5 ovarian, in the test with NCI-H460 lung and in the test on COLO 205 colon was above 100 µM throughout. The TGI in the test on RXF 393 renal, in the test with NCI-H23 lung and in the test with CCRF-CEM leukemia was above 100 µM in each case.
For the molecule `CCC[CH2][Sn]([CH2]CCC)([O]C(=O)c1c(F)cccc1F)[O]C(=O)c1c(F)cccc1F`, the GI50 in the test with U251 CNS was 0.443 µM; with SR leukemia it was 0.318 µM; in the test with SN12C renal, 0.777 µM; in the test with OVCAR-5 ovarian it was 1.34 µM; with NCI-H460 lung, 1.54 µM; in the test on COLO 205 colon, 0.574 µM. In addition, the GI50 is 0.242 µM with RXF 393 renal and 0.439 µM in the test with NCI-H23 lung. Besides, the TGI with U251 CNS stood at 1.6 µM; in the test on SR leukemia, 2.14 µM; in the test on SN12C renal, 2.03 µM; with OVCAR-5 ovarian, 2.61 µM; in the test on NCI-H460 lung, 2.9 µM; in the test with COLO 205 colon, 1.74 µM. Besides, the TGI in the test on RXF 393 renal was 0.844 µM; in the test with NCI-H23 lung it was 1.6 µM.
As for `O=C(O)c1ccccc1Cc1ccco1`, the concentration for total growth inhibition (TGI) in the test on U251 CNS, with SR leukemia, in the test on SN12C renal, in the test on OVCAR-5 ovarian, in the test on NCI-H460 lung and with COLO 205 colon was above 100 µM in each case. Moreover, the total growth inhibition concentration (TGI) with RXF 393 renal and with NCI-H23 lung was above 100 µM in each case.
As to `FC(F)(F)C1(Cl)C(c2ccccc2)=C1c1ccccc1`, the total growth inhibition concentration (TGI) in the test on U251 CNS was 28.2 µM; with SR leukemia it was above 100 µM; in the test on SN12C renal, 29.3 µM; in the test on OVCAR-5 ovarian it was 31.3 µM; in the test with NCI-H460 lung, 30.4 µM; with COLO 205 colon, 30.3 µM. For the same molecule, the TGI is 26.6 µM in the test on RXF 393 renal, 29.3 µM with NCI-H23 lung and 12.1 µM in the test with CCRF-CEM leukemia.
